Assay results from patent US10464922B2, “Metalloenzyme inhibitor compounds” (NQP 1598 LTD., priority 2015, dated 2019).
In brackets after ≈: the same amount, converted by molar mass. Read-outs that look alike come from different tables or passages of the source.

What was measured:
[1] = system: A. fumigatus; experiment: A. fumigatus MIC at 100% growth inhibition (CLSI M38-A2); format: cell-based, Aspergillus fumigatus; conditions: for MIC: Aspergillus fumigatus, read-out: Aspergillus fumigatus MIC
Protocol: A. fumigatus MICs were determined at 100% growth inhibition following CLSI guidelines at a concentration range of 8-0.0078 μg/mL (CLSI M38-A2).

[2] = system: C. albicans (ATCC 90028); experiment: Minimum inhibitory concentration, in vitro broth microdilution assay (CLSI M27-A2); format: cell-based, Candida albicans; conditions: for MIC: Candida albicans, ATCC90028, 48 h, read-out: Candida albicans MIC
Protocol: The antifungal potency of the test compounds was measured using the in vitro broth microdilution assay under assay conditions described by the Clinical and Laboratory Standards Institute (CLSI M27-A2). The test compounds were dissolved in 100% DMSO, suspended completely by sonication or vortexing, diluted by 2-fold serial titrations in the same vehicle, for a total of 11 test concentrations. A 4 μL aliquot of each dilution was added to 196 μL of RPMI-1640+MOPS medium seeded with the C. albicans (ATCC 90028) suspension in wells of a 96 well plate (fungal cell count: 1×10^3 to 1×10^4 colony forming units per mL). The final volume was 200 μL in each well and the final DMSO concentration was 2 percent. The inoculated plates were incubated for 2 days at 36° C. Following incubation, the test plates were visually examined and wells were scored for growth to define the minimum inhibitory concentration. […] Each test substance was evaluated in duplicate. Vehicle-control and an active reference agent (e.g., posaconazole) were used as blank and positive controls, respectively.

[3] = 100% growth inhibition, range tested 8-0.0078 μg/mL, values given as ranges
[4] = ATCC 90028, about 50% growth reduction, 2 days at 36° C., range tested 8-0.0078 μg/mL, values given as ranges

`CC(C)(C)C(O)c1ccc(N2CCN(c3ccc(-c4ccc(C(F)(F)[C@](O)(Cn5cnnn5)c5ccc(F)cc5F)nc4)cc3)CC2)cn1` (stereo partly drawn) [Example 50, 1-(5-(4-(4-(6-((R)-2-(2,4-difluorophenyl)-1,1-difluoro-2-hydroxy-3-(1H-tetrazol-1-yl)propyl)pyridin-3-yl)phenyl)piperazin-1-yl)pyridin-2-yl)-2,2-dimethylpropan-1-ol] showed an MIC [1, 3] of 0.25 to 1 µg/mL (≈ 0.369 to 1.48 µM) and an MIC [2, 4] of 0.01 to 0.1 µg/mL (≈ 0.0148 to 0.148 µM).
For `OC(c1ccc(N2CCN(c3ccc(-c4ccc(C(F)(F)[C@](O)(Cn5cnnn5)c5ccc(F)cc5F)nc4)cc3)CC2)cn1)C(F)(F)F` (single isomer, unassigned) [Example 6-Fr-I], the MIC [1, 3] was 0.25 to 1 µg/mL (≈ 0.363 to 1.45 µM) and the MIC [2, 4] was 0.01 to 0.1 µg/mL (≈ 0.0145 to 0.145 µM).
With `OC(c1ccc(N2CCN(c3ccc(-c4ccc(C(F)(F)[C@](O)(Cn5cnnn5)c5ccc(F)cc5F)nc4)cc3)CC2)cc1)C1CC1` (stereo partly drawn) [Example 42, (2R)-1-(5-(4-(4-(4-(cyclopropyl (hydroxy)methyl)phenyl)piperazin-1-yl)phenyl)pyridin-2-yl)-2-(2,4-difluorophenyl)-1,1-difluoro-3-(1H-tetrazol-1-yl) propan-2-ol] the MIC [1, 3] was over 8 µg/mL and the MIC [2, 4] was 0.0078 to 0.01 µg/mL (≈ 0.0118 to 0.0152 µM).
`OC(c1ccc(N2CCN(c3ccc(-c4ccc(C(F)(F)[C@](O)(Cn5cnnn5)c5ccc(F)cc5F)nc4)cc3)CC2)cn1)C1CC1` (some centres unmarked) [Example 46] showed an MIC [1, 3] of over 8 µg/mL and an MIC [2, 4] of 0.0078 to 0.01 µg/mL (≈ 0.0118 to 0.0151 µM).
For `OC(CC(F)(F)F)c1ncc(N2CCN(c3ccc(-c4ccc(C(F)(F)[C@](O)(Cn5cnnn5)c5ccc(F)cc5F)nc4)cc3)CC2)cn1` (stereo partly drawn) [Example 51, 1-(5-(4-(4-(6-((R)-2-(2,4-difluorophenyl)-1,1-difluoro-2-hydroxy-3-(1H-tetrazol-1-yl)propyl)pyridin-3-yl)phenyl)piperazin-1-yl)pyrimidin-2-yl)-3,3,3-trifluoropropan-1-ol], the MIC [1, 3] was 1 to 4 µg/mL (≈ 1.42 to 5.68 µM) and the MIC [2, 4] was 0.0078 to 0.01 µg/mL (≈ 0.0111 to 0.0142 µM).
`NC(c1ccc(N2CCN(c3ccc(-c4ccc(C(F)(F)[C@](O)(Cn5cnnn5)c5ccc(F)cc5F)nc4)cc3)CC2)cc1)C(F)(F)F` (stereo partly drawn) [Example 4, (2R)-1-(5-(4-(4-(4-(1-amino-2,2,2-trifluoroethyl)phenyl)piperazin-1-yl)phenyl)pyridin-2-yl)-2-(2,4-difluorophenyl)-1,1-difluoro-3-(1H-tetrazol-1-yl) propan-2-ol] gave an MIC [1, 3] of 0.25 to 1 µg/mL (≈ 0.364 to 1.46 µM) and an MIC [2, 4] of 0.01 to 0.1 µg/mL (≈ 0.0146 to 0.146 µM).
`CC[C@@H]([C@H](C)O)n1ncn(-c2ccc(N3CCN(c4ccc(-c5ccc(C(F)(F)C(O)(Cn6cncn6)c6ccc(F)cc6F)nc5)cc4)CC3)cc2)c1=O` (single isomer, unassigned; (-)) [123(−)] was tested, and the “Aspergillus fumigatus MIC” value [1, 3] was 0.25 to 1.0 µg/mL and the MIC [2, 4] was 0.01 to 0.1 µg/mL (≈ 0.0132 to 0.132 µM).
With `O=Cc1ccc(N2CCN(c3ccc(-c4ccc(C(F)(F)[C@](O)(Cn5cnnn5)c5ccc(F)cc5F)nc4)cc3)CC2)cn1` [Example 32, (R)-5-(4-(4-(6-(2-(2,4-difluorophenyl)-1,1-difluoro-2-hydroxy-3-(1H-tetrazol-1-yl)propyl)pyridin-3-yl)phenyl)piperazin-1-yl) picolinaldehyde] the MIC [1, 3] was 0.25 to 1 µg/mL (≈ 0.404 to 1.62 µM) and the MIC [2, 4] was 0.1 to 1 µg/mL (≈ 0.162 to 1.62 µM).
For `N#Cc1ccc(N2CCN(c3ccc(-c4ccc(C(F)(F)[C@](O)(Cn5cnnn5)c5ccc(F)cc5F)nc4)cc3)CC2)c(F)c1` [Example 11, (R)-4-(4-(4-(6-(2-(2,4-difluorophenyl)-1,1-difluoro-2-hydroxy-3-(1H-tetrazol-1-yl)propyl)pyridin-3-yl)phenyl)piperazin-1-yl)-3-fluorobenzonitrile], the MIC [1, 3] was 0.25 to 1 µg/mL (≈ 0.395 to 1.58 µM) and the MIC [2, 4] was 0.0078 to 0.01 µg/mL (≈ 0.0123 to 0.0158 µM).
`NC(CC(F)(F)F)C(=O)Nc1ccc(N2CCN(c3ccc(-c4ccc(C(F)(F)[C@](O)(Cn5cnnn5)c5ccc(F)cc5F)nc4)cc3)CC2)cc1` (stereo partly drawn) [Example 88, 2-amino-N-(4-(4-(4-(6-((R)-2-(2,4-difluorophenyl)-1,1-difluoro-2-hydroxy-3-(1H-tetrazol-1-yl)propyl)pyridin-3-yl)phenyl)piperazin-1-yl)phenyl)-4,4,4-trifluorobutanamide] was tested, and the MIC [1] was over 8 µg/mL and the MIC [2] was 0.01 to 0.1 µg/mL (≈ 0.0134 to 0.134 µM).
`N#Cc1ccc(N2CCN(c3ccc(-c4ccc(C(F)(F)[C@](O)(Cn5cnnn5)c5ccc(F)cc5F)nc4)cc3)CC2)cc1F` [Example 8, (R)-4-(4-(4-(6-(2-(2,4-difluorophenyl)-1,1-difluoro-2-hydroxy-3-(1H-tetrazol-1-yl)propyl)pyridin-3-yl)phenyl)piperazin-1-yl)-2-fluorobenzonitrile] showed an MIC [1, 3] of 0.25 to 1 µg/mL (≈ 0.395 to 1.58 µM) and an MIC [2, 4] of 0.0078 to 0.01 µg/mL (≈ 0.0123 to 0.0158 µM).
`CC(C)CC(O)c1ccc(N2CCN(c3ccc(-c4ccc(C(F)(F)[C@](O)(Cn5cnnn5)c5ccc(F)cc5F)nc4)cc3)CC2)cc1` (stereo partly drawn) [Example 41, 1-(4-(4-(4-(6-((R)-2-(2,4-difluorophenyl)-1,1-difluoro-2-hydroxy-3-(1H-tetrazol-1-yl)propyl)pyridin-3-yl)phenyl)piperazin-1-yl)phenyl)-3-methylbutan-1-ol] was tested, and the MIC [1, 3] was 0.25 to 1 µg/mL (≈ 0.37 to 1.48 µM) and the MIC [2, 4] was 0.0078 to 0.01 µg/mL (≈ 0.0115 to 0.0148 µM).
`CC[C@@H]([C@H](C)O)n1ncn(-c2ccc(N3CCN(c4ccc(-c5ccc(C(F)(F)[C@](O)(Cn6cnnn6)c6ccc(F)cc6F)nc5)cc4)CC3)cn2)c1=O` [Example 124, 4-(5-(4-(4-(6-((R)-2-(2,4-difluorophenyl)-1,1-difluoro-2-hydroxy-3-(1H-tetrazol-1-yl)propyl)pyridin-3-yl)phenyl)piperazin-1-yl)pyridin-2-yl)-2-((2S,3S)-2-hydroxypentan-3-yl)-2,4-dihydro-3H-1,2,4-triazol-3-one] was tested, and the “Aspergillus fumigatus MIC” value [1, 3] was 0.25 to 1.0 µg/mL and the MIC [2, 4] was 0.01 to 0.1 µg/mL (≈ 0.0132 to 0.132 µM).
Molecule `CC[C@H](NC(=O)c1ccc(N2CCN(c3ccc(-c4ccc(C(F)(F)[C@](O)(Cn5cnnn5)c5ccc(F)cc5F)nc4)cc3)CC2)cc1)[C@H](C)O` [Example 57, 4-(4-(4-(6-((R)-2-(2,4-difluorophenyl)-1,1-difluoro-2-hydroxy-3-(1H-tetrazol-1-yl)propyl)pyridin-3-yl)phenyl)piperazin-1-yl)-N-((2S,3S)-2-hydroxypentan-3-yl) benzamide] has an MIC [1, 3] of 0.25 to 1 µg/mL (≈ 0.348 to 1.39 µM) and an MIC [2, 4] of 0.01 to 0.1 µg/mL (≈ 0.0139 to 0.139 µM).
For `O=c1n(CC(F)(F)F)ccn1-c1ccc(N2CCN(c3ccc(-c4ccc(C(F)(F)[C@](O)(Cn5cnnn5)c5ccc(F)cc5F)nc4)cc3)CC2)cc1` [Example 96], the MIC [1, 3] was 0.25 to 1 µg/mL (≈ 0.332 to 1.33 µM) and the MIC [2, 4] was 0.0078 to 0.01 µg/mL (≈ 0.0103 to 0.0133 µM).
Molecule `N#Cc1ccc(N2CCN(c3ccc(-c4ccc(C(F)(F)[C@](O)(Cn5cnnn5)c5ccc(F)cc5F)nc4)cc3)CC2)cn1` [Example 7, (R)-5-(4-(4-(6-(2-(2,4-difluorophenyl)-1,1-difluoro-2-hydroxy-3-(1H-tetrazol-1-yl)propyl)pyridin-3-yl)phenyl)piperazin-1-yl) picolinonitrile] has an MIC [1, 3] of 0.25 to 1 µg/mL (≈ 0.406 to 1.62 µM) and an MIC [2, 4] of 0.0078 to 0.01 µg/mL (≈ 0.0127 to 0.0162 µM).
Work on `CC(O)c1ccc(N2CCN(c3ccc(-c4ccc(C(F)(F)[C@](O)(Cn5cnnn5)c5ccc(F)cc5F)nc4)cc3)CC2)cn1` (stereo partly drawn) [Example 44, (2R)-2-(2,4-difluorophenyl)-1,1-difluoro-1-(5-(4-(4-(6-(1-hydroxyethyl)pyridin-3-yl)piperazin-1-yl)phenyl)pyridin-2-yl)-3-(1H-tetrazol-1-yl) propan-2-ol] yielded an MIC [1, 3] of 1 to 4 µg/mL (≈ 1.58 to 6.3 µM) and an MIC [2, 4] of 0.0078 to 0.01 µg/mL (≈ 0.0123 to 0.0158 µM).
Work on `OC(c1cc(F)cc(N2CCN(c3ccc(-c4ccc(C(F)(F)[C@](O)(Cn5cnnn5)c5ccc(F)cc5F)nc4)cc3)CC2)c1)C(F)(F)F` (stereo partly drawn) [Example 100, (2R)-2-(2,4-difluorophenyl)-1,1-difluoro-1-(5-(4-(4-(3-fluoro-5-(2,2,2-trifluoro-1-hydroxyethyl)phenyl)piperazin-1-yl)phenyl)pyridin-2-yl)-3-(1H-tetrazol-1-yl) propan-2-ol] yielded an MIC [1, 3] of 0.25 to 1 µg/mL (≈ 0.354 to 1.42 µM) and an MIC [2, 4] of 0.0078 to 0.01 µg/mL (≈ 0.0111 to 0.0142 µM).
Work on `O=C(Nc1ccc(N2CCN(c3ccc(-c4ccc(C(F)(F)[C@](O)(Cn5cnnn5)c5ccc(F)cc5F)nc4)cc3)CC2)cc1)C(O)CC(F)(F)F` (stereo partly drawn) [Example 105, N-(4-(4-(4-(6-((R)-2-(2,4-difluorophenyl)-1,1-difluoro-2-hydroxy-3-(1H-tetrazol-1-yl)propyl)pyridin-3-yl)phenyl)piperazin-1-yl)phenyl)-4,4,4-trifluoro-2-hydroxybutanamide] yielded an MIC [1, 3] of over 8 µg/mL and an MIC [2, 4] of 0.0078 to 0.01 µg/mL (≈ 0.0105 to 0.0134 µM).
`CC(C)(C)Cn1ncn(-c2ccc(N3CCN(c4ccc(-c5ccc(C(F)(F)[C@](O)(Cn6cnnn6)c6ccc(F)cc6F)nc5)cc4)CC3)cc2)c1=O` [Example 81, (R)-4-(4-(4-(4-(6-(2-(2,4-difluorophenyl)-1,1-difluoro-2-hydroxy-3-(1H-tetrazol-1-yl)propyl)pyridin-3-yl)phenyl)piperazin-1-yl)phenyl)-2-neopentyl-2,4-dihydro-3H-1,2,4-triazol-3-one] showed an MIC [1, 3] of 0.25 to 1 µg/mL (≈ 0.337 to 1.35 µM) and an MIC [2, 4] of 0.0078 to 0.01 µg/mL (≈ 0.0105 to 0.0135 µM).
With `OC(c1ccc(N2CCN(c3ccc(-c4ccc(C(F)(F)[C@](O)(Cn5cnnn5)c5ccc(F)cc5F)nc4)cc3)CC2)cn1)C(F)(F)F` (single isomer, unassigned) [Example 6-Fr-II] the “Aspergillus fumigatus MIC” value [1, 3] was 0.25 to 1.0 µg/mL and the “Candida albicans MIC” value [2, 4] was at most 7.8 to 10 ng/mL.
`OC(c1ccc(N2CCN(c3ccc(-c4ccc(C(F)(F)C(O)(Cn5cnnn5)c5cc(F)ccc5F)nc4)cc3)CC2)cc1)C(F)(F)F` (stereo not drawn) [15(+)] was tested, and the “Aspergillus fumigatus MIC” value [1, 3] was 0.25 to 1.0 µg/mL and the “Candida albicans MIC” value [2, 4] was at most 7.8 to 10 ng/mL.
